What was measured:
Type in all cases: functional
[1] = tested on: Panel leukemia (Carcinoma cell lines); experiment: cells; details: Homo sapiens, time 48 hrs
Description: Growth inhibition of human Panel leukemia (Carcinoma cell lines) incubated for 48 hrs by sulforhodamine B assay

CCRF-CEM = experiment: cells; details: Homo sapiens, time 48 hrs
Description: Growth inhibition of human CCRF-CEM cells incubated for 48 hrs by sulforhodamine B assay

K562 = experiment: cells; details: Homo sapiens, time 48 hrs
Description: Growth inhibition of human K562 cells incubated for 48 hrs by sulforhodamine B assay

SR = experiment: cells; details: Homo sapiens, time 48 hrs
Description: Growth inhibition of human SR cells incubated for 48 hrs by sulforhodamine B assay

A549 = experiment: cells; details: Homo sapiens, time 48 hrs
Description: Growth inhibition of human A549/ATCC cells incubated for 48 hrs by sulforhodamine B assay

HOP-62 = experiment: cells; details: Homo sapiens, time 48 hrs
Description: Growth inhibition of human HOP-62 cells incubated for 48 hrs by sulforhodamine B assay

HOP-92 = experiment: cells; details: Homo sapiens, time 48 hrs
Description: Growth inhibition of human HOP-92 cells incubated for 48 hrs by sulforhodamine B assay

NCI-H226 = experiment: cells; details: Homo sapiens, time 48 hrs
Description: Growth inhibition of human NCI-H226 cells incubated for 48 hrs by sulforhodamine B assay

NCI-H23 = experiment: cells; details: Homo sapiens, time 48 hrs
Description: Growth inhibition of human NCI-H23 cells incubated for 48 hrs by sulforhodamine B assay

NCI-H322M = experiment: cells; details: Homo sapiens, time 48 hrs
Description: Growth inhibition of human NCI-H322M cells incubated for 48 hrs by sulforhodamine B assay

NCI-H460 = experiment: cells; details: Homo sapiens, time 48 hrs
Description: Growth inhibition of human NCI-H460 cells incubated for 48 hrs by sulforhodamine B assay

NCI-H522 = experiment: cells; details: Homo sapiens, time 48 hrs
Description: Growth inhibition of human NCI-H522 cells incubated for 48 hrs by sulforhodamine B assay

HCT-116 = experiment: cells; details: Homo sapiens, time 48 hrs
Description: Growth inhibition of human HCT-116 cells incubated for 48 hrs by sulforhodamine B assay

HCT-15 = experiment: cells; details: Homo sapiens, time 48 hrs
Description: Growth inhibition of human HCT-15 cells incubated for 48 hrs by sulforhodamine B assay

HT-29 = experiment: cells; details: Homo sapiens, time 48 hrs
Description: Growth inhibition of human HT-29 cells incubated for 48 hrs by sulforhodamine B assay

KM12 = experiment: cells; details: Homo sapiens, time 48 hrs
Description: Growth inhibition of human KM12 cells incubated for 48 hrs by sulforhodamine B assay

SF-295 = experiment: cells; details: Homo sapiens, time 48 hrs
Description: Growth inhibition of human SF-295 cells incubated for 48 hrs by sulforhodamine B assay

SNB-75 = experiment: cells; details: Homo sapiens, time 48 hrs
Description: Growth inhibition of human SNB-75 cells incubated for 48 hrs by sulforhodamine B assay

U-251 = experiment: cells; details: Homo sapiens, time 48 hrs
Description: Growth inhibition of human U-251 cells incubated for 48 hrs by sulforhodamine B assay

LOX IMVI = experiment: cells; details: Homo sapiens, time 48 hrs
Description: Growth inhibition of human LOX IMVI cells incubated for 48 hrs by sulforhodamine B assay

SK-MEL-28 = experiment: cells; details: Homo sapiens, time 48 hrs
Description: Growth inhibition of human SK-MEL-28 cells incubated for 48 hrs by sulforhodamine B assay

UACC-257 = experiment: cells; details: Homo sapiens, time 48 hrs
Description: Growth inhibition of human UACC-257 cells incubated for 48 hrs by sulforhodamine B assay

UACC-62 = experiment: cells; details: Homo sapiens, time 48 hrs
Description: Growth inhibition of human UACC-62 cells incubated for 48 hrs by sulforhodamine B assay

IGROV-1 = experiment: cells; details: Homo sapiens, time 48 hrs
Description: Growth inhibition of human IGROV-1 cells incubated for 48 hrs by sulforhodamine B assay

OVCAR-3 = experiment: cells; details: Homo sapiens, time 48 hrs
Description: Growth inhibition of human OVCAR-3 cells incubated for 48 hrs by sulforhodamine B assay

OVCAR-4 = experiment: cells; details: Homo sapiens, time 48 hrs
Description: Growth inhibition of human OVCAR-4 cells incubated for 48 hrs by sulforhodamine B assay

OVCAR-8 = experiment: cells; details: Homo sapiens, time 48 hrs
Description: Growth inhibition of human OVCAR-8 cells incubated for 48 hrs by sulforhodamine B assay

A498 = experiment: cells; details: Homo sapiens, time 48 hrs
Description: Growth inhibition of human A498 cells incubated for 48 hrs by sulforhodamine B assay

RXF 393 = experiment: cells; details: Homo sapiens, time 48 hrs
Description: Growth inhibition of human RXF 393 cells incubated for 48 hrs by sulforhodamine B assay

TK-10 = experiment: cells; details: Homo sapiens, time 48 hrs
Description: Growth inhibition of human TK-10 cells incubated for 48 hrs by sulforhodamine B assay

UO-31 = experiment: cells; details: Homo sapiens, time 48 hrs
Description: Growth inhibition of human UO-31 cells incubated for 48 hrs by sulforhodamine B assay

PC-3 = experiment: cells; details: Homo sapiens, time 48 hrs
Description: Growth inhibition of human PC-3 cells incubated for 48 hrs by sulforhodamine B assay

MCF7 = experiment: cells; details: Homo sapiens, time 48 hrs
Description: Growth inhibition of human MCF7 cells incubated for 48 hrs by sulforhodamine B assay

MDA-MB-231 = experiment: cells; details: Homo sapiens, time 48 hrs
Description: Growth inhibition of human MDA-MB-231/ATCC cells incubated for 48 hrs by sulforhodamine B assay

Hs-578T = experiment: cells; details: Homo sapiens, time 48 hrs
Description: Growth inhibition of human Hs-578T cells incubated for 48 hrs by sulforhodamine B assay

MDA-MB-468 = experiment: cells; details: Homo sapiens, time 48 hrs
Description: Growth inhibition of human MDA-MB-468 cells incubated for 48 hrs by sulforhodamine B assay

cells = details: Homo sapiens, Non-small cell lung cancer cell line; time 48 hrs
Description: Growth inhibition of human Non-small cell lung cancer cell line incubated for 48 hrs by sulforhodamine B assay

[2] = tested on: Panel colon (Carcinoma cell lines); experiment: cells; details: Homo sapiens, time 48 hrs
Description: Growth inhibition of human Panel colon (Carcinoma cell lines) incubated for 48 hrs by sulforhodamine B assay

[3] = tested on: Panel CNS (Carcinoma cell lines); experiment: cells; details: Homo sapiens, time 48 hrs
Description: Growth inhibition of human Panel CNS (Carcinoma cell lines) incubated for 48 hrs by sulforhodamine B assay

[4] = tested on: Panel melanoma (Carcinoma cell lines); experiment: cells; details: Homo sapiens, time 48 hrs
Description: Growth inhibition of human Panel melanoma (Carcinoma cell lines) incubated for 48 hrs by sulforhodamine B assay

[5] = tested on: Panel ovarian (Carcinoma cell lines); experiment: cells; details: Homo sapiens, time 48 hrs
Description: Growth inhibition of human Panel ovarian (Carcinoma cell lines) incubated for 48 hrs by sulforhodamine B assay

[6] = tested on: Panel renal (Carcinoma cell lines); experiment: cells; details: Homo sapiens, time 48 hrs
Description: Growth inhibition of human Panel renal (Carcinoma cell lines) incubated for 48 hrs by sulforhodamine B assay

[7] = tested on: Panel prostate (Carcinoma cell lines); experiment: cells; details: Homo sapiens, time 48 hrs
Description: Growth inhibition of human Panel prostate (Carcinoma cell lines) incubated for 48 hrs by sulforhodamine B assay

[8] = tested on: Panel breast (Carcinoma cell lines); experiment: cells; details: Homo sapiens, time 48 hrs
Description: Growth inhibition of human Panel breast (Carcinoma cell lines) incubated for 48 hrs by sulforhodamine B assay

[9] = tested on: Panel NCI-60 (60 carcinoma cell lines); experiment: cells; details: Homo sapiens, time 48 hrs
Description: Growth inhibition of human Panel NCI-60 (60 carcinoma cell lines) incubated for 48 hrs by sulforhodamine B assay

[10] = read-out: LC50 (the source's name)

COc1cc2ncnc(Nc3ccc(F)c(Cl)c3)c2cc1OCCCN1CCOCC1 [GEFITINIB]
GI50 [1]: 3540 nM

CC(C)c1ccc(Nc2ccc3c(OCCCN4CCN(C)CC4)cccc3n2)cc1
GI50 (CCRF-CEM): 3740 nM | GI50 (K562): 2050 nM | GI50 (SR): 2850 nM | GI50 (A549): 15600 nM | GI50 (HOP-62): 11900 nM | GI50 (HOP-92): 10600 nM | GI50 (NCI-H226): 18800 nM | GI50 (NCI-H23): 11900 nM | GI50 (NCI-H322M): 11000 nM | GI50 (NCI-H460): 5440 nM | GI50 (NCI-H522): 19900 nM | GI50 (HCT-116): 5900 nM | GI50 (HCT-15): 1940 nM | GI50 (HT-29): 2160 nM | GI50 (KM12): 11300 nM | GI50 (SF-295): 3630 nM | GI50 (SNB-75): 12800 nM | GI50 (U-251): 3280 nM | GI50 (LOX IMVI): 1860 nM | GI50 (SK-MEL-28): 1890 nM | GI50 (UACC-257): 5650 nM | GI50 (UACC-62): 2170 nM | GI50 (IGROV-1): 16100 nM | GI50 (OVCAR-3): 14400 nM | GI50 (OVCAR-4): 13900 nM | GI50 (OVCAR-8): 17800 nM | GI50 (A498): 16400 nM | GI50 (RXF 393): 7280 nM | GI50 (TK-10): 16500 nM | GI50 (UO-31): 12900 nM | GI50 (PC-3): 12900 nM | GI50 (MCF7): 3210 nM | GI50 (MDA-MB-231): 2110 nM | GI50 (Hs-578T): 16900 nM | GI50 (MDA-MB-468): 12300 nM | GI50 [1]: 4240 nM | GI50 (cells): 13200 nM | GI50 [2]: 4850 nM | GI50 [3]: 9250 nM | GI50 [4]: 6620 nM | GI50 [5]: 15600 nM | GI50 [6]: 13200 nM | GI50 [7]: 13400 nM | GI50 [8]: 9950 nM | GI50 [9]: 7760 nM

CN1CCN(CCCOc2cccc3nc(Nc4ccc(Cl)c(F)c4)ccc23)CC1
GI50 (K562): 1470 nM | GI50 (A549): 1960 nM | GI50 (HOP-62): 1450 nM | GI50 (HOP-92): 1330 nM | GI50 (NCI-H226): 2050 nM | GI50 (NCI-H23): 1750 nM | GI50 (NCI-H322M): 1700 nM | GI50 (NCI-H460): 1910 nM | GI50 (NCI-H522): 1750 nM | GI50 (HCT-116): 1560 nM | GI50 (HCT-15): 1400 nM | GI50 (HT-29): 1410 nM | GI50 (KM12): 1770 nM | GI50 (SF-295): 1790 nM | GI50 (U-251): 1810 nM | GI50 (LOX IMVI): 1640 nM | GI50 (SK-MEL-28): 1720 nM | GI50 (UACC-257): 2040 nM | GI50 (UACC-62): 2050 nM | GI50 (IGROV-1): 1950 nM | GI50 (OVCAR-3): 1700 nM | GI50 (OVCAR-4): 3130 nM | GI50 (OVCAR-8): 2020 nM | GI50 (A498): 2390 nM | GI50 (RXF 393): 1960 nM | GI50 (TK-10): 1810 nM | GI50 (UO-31): 1570 nM | GI50 (PC-3): 1760 nM | GI50 (MCF7): 1310 nM | GI50 (MDA-MB-231): 1680 nM | GI50 (Hs-578T): 2120 nM | GI50 (MDA-MB-468): 1720 nM | GI50 [1]: 1900 nM | LC50 (50% lethal concentration) [1]: 53900 nM | TGI [1]: 4280 nM | GI50 (cells): 1750 nM | LC50 (50% lethal concentration) (cells): 9980 nM | TGI (cells): 3880 nM | GI50 [2]: 1620 nM | TGI [2]: 3170 nM | CC50 [2, 10]: 6210 nM | GI50 [3]: 1740 nM | TGI [3]: 3350 nM | CC50 [3, 10]: 6460 nM | GI50 [4]: 1820 nM | LC50 [4]: 6770 nM | TGI [4]: 3500 nM | GI50 [5]: 1990 nM | LC50 [5]: 11300 nM | TGI [5]: 4870 nM | GI50 [6]: 2220 nM | LC50 (lethal concentration 50%) [6]: 19800 nM | TGI [6]: 6210 nM | GI50 [7]: 1760 nM | LC50 (concentration killing 50% of cells) [7]: 6210 nM | TGI [7]: 2800 nM | GI50 [8]: 1840 nM | TGI [8]: 4500 nM | CC50 [8, 10]: 13200 nM | GI50 [9]: 1820 nM | TGI [9]: 3890 nM | CC50 [9, 10]: 9120 nM

Clc1cc(Cl)cc(Nc2ccc3c(OCCCN4CCOCC4)cccc3n2)c1
GI50 (CCRF-CEM): 2360 nM | GI50 (K562): 2210 nM | GI50 (A549): 2600 nM | GI50 (HOP-62): 2290 nM | GI50 (HOP-92): 2030 nM | GI50 (NCI-H226): 3160 nM | GI50 (NCI-H23): 2940 nM | GI50 (NCI-H322M): 2510 nM | GI50 (NCI-H460): 2430 nM | GI50 (NCI-H522): 1820 nM | GI50 (HCT-116): 1820 nM | GI50 (HCT-15): 1750 nM | GI50 (HT-29): 1760 nM | GI50 (KM12): 2000 nM | GI50 (SF-295): 1920 nM | GI50 (U-251): 1980 nM | GI50 (LOX IMVI): 1720 nM | GI50 (SK-MEL-28): 1650 nM | GI50 (UACC-257): 2050 nM | GI50 (UACC-62): 2010 nM | GI50 (IGROV-1): 3900 nM | GI50 (OVCAR-3): 2920 nM | GI50 (OVCAR-4): 10300 nM | GI50 (OVCAR-8): 3540 nM | GI50 (A498): 2390 nM | GI50 (RXF 393): 2260 nM | GI50 (TK-10): 2380 nM | GI50 (UO-31): 1510 nM | GI50 (PC-3): 1940 nM | GI50 (MCF7): 1740 nM | GI50 (MDA-MB-231): 1800 nM | GI50 (Hs-578T): 2510 nM | GI50 (MDA-MB-468): 2080 nM | GI50 [1]: 2350 nM | GI50 (cells): 2530 nM | GI50 [2]: 1830 nM | GI50 [3]: 2180 nM | GI50 [4]: 3020 nM | GI50 [5]: 4020 nM | GI50 [6]: 3960 nM | GI50 [7]: 2490 nM | GI50 [8]: 3330 nM | GI50 [9]: 2570 nM
